Results reported in ChEMBL document CHEMBL3044933, “Synthesis and insect antifeedant activity of aurones against Spodoptera litura larvae” (J Agric Food Chem, 2007).
Active and inactive are the calls of the source. The calls are words filed in the database; no cut-off is given here.

Tests used:
Spodoptera litura [1] = experiment: Antifeedant activity against Spodoptera litura in compound treated cork borer from fresh sweet potato leaves assessed as leaf disk consumed at 26.5 degC; assay type: functional
Spodoptera litura [2] = experiment: Antifeedant activity against Spodoptera litura in compound treated cork borer from fresh sweet potato leaves assessed as leaf disk consumed at 0.33 mg/cm2 at 26.5 degC; assay type: functional
[3] = Lipophilicity, log k of the compound from retention time in ODS HPLC

Row | log k [3] | SMILES | ED50 (Spodoptera litura [1]) | Activity (Spodoptera litura [2]) [%] | pED50 (Spodoptera litura [1])
1 | – | Cc1cc(C)c2c(c1)O/C(=C\c1ccc(C)c(C)c1)C2=O | inactive | <40 | –
2 | 0.741 | COc1ccc(/C=C2\Oc3ccccc3C2=O)cc1OC [3',4'-DIMETHOXY-AURONE] | 0.86 umol/cm2 | – | 6.07
3 | – | C/C=C(/C)C(=O)O[C@H]1C[C@@H](OC(C)=O)[C@@]2(C)CO[C@H]3[C@H]4O[C@@H]5C[C@@H](c6ccoc6)C(C)=C5[C@@]4(C)[C@H](CC(=O)OC)[C@]1(C)[C@@H]32 [SALANNIN] | 0.066 umol/cm2 | – | 7.18
4 | – | Cc1cc(C)c2c(c1)OCC2=O [4,6-DIMETHYLCOUMARANONE] | 0.68 umol/cm2 | – | 6.17
5 | – | O=C1/C(=C/c2cccc(Cl)c2)Oc2ccccc21 | inactive | <40 | –
6 | 0.382 | CCOc1cc(/C=C2\Oc3ccccc3C2=O)ccc1O | 1.96 umol/cm2 | – | 5.71
7 | – | COc1cc(/C=C2\Oc3ccccc3C2=O)ccc1O | inactive | <40 | –
8 | 0.624 | O=C1/C(=C/c2ccc3c(c2)OCO3)Oc2ccccc21 | 1.61 umol/cm2 | – | 5.79
9 | 0.741 | COc1cc(/C=C2\Oc3ccccc3C2=O)cc(OC)c1 | 3.45 umol/cm2 | – | 5.46
10 | – | COc1cc(OC)c2c(c1)O/C(=C\c1ccc(C)c(C)c1)C2=O | inactive | <40 | –
11 | – | COc1ccccc1/C=C1\Oc2ccccc2C1=O [(Z)-2'-METHOXYAURONE] | inactive | <40 | –
12 | 0.737 | COc1cccc(/C=C2\Oc3ccccc3C2=O)c1 [3'-METHOXY-AURONE] | 1.01 umol/cm2 | – | 6
13 | – | COc1ccc(/C=C2\Oc3cc(OC)c(OC)c(OC)c3C2=O)cc1OC | inactive | <40 | –
14 | 0.56 | COc1cc(OC)c2c(c1)O/C(=C\c1ccccc1)C2=O | 0.85 umol/cm2 | – | 6.07
15 | – | O=C1COc2ccccc21 [3-COUMARANONE] | inactive | <40 | –
16 | – | COc1cc(/C=C2\Oc3ccccc3C2=O)cc(OC)c1OC | inactive | <40 | –
17 | 1.05 | O=C1/C(=C/c2cccc(Br)c2)Oc2ccccc21 | 4.21 umol/cm2 | – | 5.38
18 | – | O=C1/C(=C/c2ccc(O)c(O)c2)Oc2ccccc21 | inactive | <40 | –
19 | – | COc1ccc(/C=C2\Oc3cc(C)cc(C)c3C2=O)cc1OC | 1.02 umol/cm2 | – | 5.99
20 | 0.689 | COc1ccc(/C=C2\Oc3ccccc3C2=O)cc1 [4'-METHOXY-AURONE] | 2.03 umol/cm2 | – | 5.69
21 | – | COc1cc(OC)c2c(c1)OCC2=O [4,6-DIMETHOXYCOUMARANONE] | 3.87 umol/cm2 | – | 5.41
22 | – | COc1cc2c(c(OC)c1OC)C(=O)CO2 [4,5,6-TRIMETHOXYCOUMARANONE] | 0.41 umol/cm2 | – | 6.39
23 | – | O=C1/C(=C/c2ccccc2)Oc2ccccc21 [(Z)-AURONE] | inactive | <40 | –

Row | SMILES | log k [3] | ED50 (Spodoptera litura [1]) | Activity (Spodoptera litura [2]) [%] | pED50 (Spodoptera litura [1])
24 | COc1cc(OC)c2c(c1)O/C(=C\c1ccc(OC)c(OC)c1)C2=O [4,6,3',4'-TETRAMETHOXYAURONE] | 0.277 | 0.12 umol/cm2 | – | 6.92
